The results in this text go back to ChEMBL document CHEMBL4507291 (2021).

In assay [1] the target is Serine/threonine-protein kinase PLK4 (Homo sapiens) (UniProt O00444).
Assay [2] deals with T1, Tyrosine-protein kinase receptor TYRO3 (Homo sapiens) (UniProt Q06418).
T1 sequence (whole entry): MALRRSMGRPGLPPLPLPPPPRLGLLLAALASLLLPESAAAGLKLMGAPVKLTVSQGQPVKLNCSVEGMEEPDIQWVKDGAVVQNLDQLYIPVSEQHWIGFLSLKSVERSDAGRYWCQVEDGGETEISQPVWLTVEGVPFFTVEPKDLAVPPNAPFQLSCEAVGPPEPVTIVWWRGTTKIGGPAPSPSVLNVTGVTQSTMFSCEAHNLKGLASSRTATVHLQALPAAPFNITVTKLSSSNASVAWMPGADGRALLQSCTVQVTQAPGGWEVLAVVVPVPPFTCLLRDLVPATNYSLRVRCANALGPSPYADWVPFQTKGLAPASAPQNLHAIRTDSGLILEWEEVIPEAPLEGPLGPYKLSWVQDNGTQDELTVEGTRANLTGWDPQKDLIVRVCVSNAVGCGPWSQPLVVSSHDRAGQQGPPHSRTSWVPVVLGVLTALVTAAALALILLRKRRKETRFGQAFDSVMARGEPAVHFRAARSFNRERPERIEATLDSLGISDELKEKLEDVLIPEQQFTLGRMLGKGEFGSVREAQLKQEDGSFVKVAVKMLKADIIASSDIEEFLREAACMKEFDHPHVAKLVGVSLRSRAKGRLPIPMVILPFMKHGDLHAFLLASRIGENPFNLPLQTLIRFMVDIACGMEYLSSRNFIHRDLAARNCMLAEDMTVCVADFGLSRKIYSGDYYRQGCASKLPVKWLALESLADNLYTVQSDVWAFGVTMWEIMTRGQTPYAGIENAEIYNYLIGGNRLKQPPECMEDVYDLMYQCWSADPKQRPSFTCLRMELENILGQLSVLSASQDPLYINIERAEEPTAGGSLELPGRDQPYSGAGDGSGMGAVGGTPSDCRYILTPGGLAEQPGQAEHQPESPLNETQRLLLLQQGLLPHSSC

For assay [3], the target named is Tyrosine-protein kinase FRK (Homo sapiens) (UniProt P42685).
The target of assay [4] is Mitogen-activated protein kinase 4 (Homo sapiens) (UniProt P31152).
Assay [5] addresses Cyclin-dependent kinase-like 3 (Homo sapiens) (UniProt Q8IVW4).
Assay [6] deals with Mitogen-activated protein kinase 14 (Homo sapiens) (UniProt Q16539).
In assay [7] the target is Peripheral plasma membrane protein CASK (Homo sapiens) (UniProt O14936).
For assay [8], the target named is Protein kinase C eta type (Homo sapiens) (UniProt P24723).
The target in assay [9] is Dual specificity mitogen-activated protein kinase kinase 5 (Homo sapiens) (UniProt Q13163).
Assay [10] has as its target T2, Mitogen-activated protein kinase kinase kinase 2 (Homo sapiens) (UniProt Q9Y2U5).
T2 sequence (whole entry): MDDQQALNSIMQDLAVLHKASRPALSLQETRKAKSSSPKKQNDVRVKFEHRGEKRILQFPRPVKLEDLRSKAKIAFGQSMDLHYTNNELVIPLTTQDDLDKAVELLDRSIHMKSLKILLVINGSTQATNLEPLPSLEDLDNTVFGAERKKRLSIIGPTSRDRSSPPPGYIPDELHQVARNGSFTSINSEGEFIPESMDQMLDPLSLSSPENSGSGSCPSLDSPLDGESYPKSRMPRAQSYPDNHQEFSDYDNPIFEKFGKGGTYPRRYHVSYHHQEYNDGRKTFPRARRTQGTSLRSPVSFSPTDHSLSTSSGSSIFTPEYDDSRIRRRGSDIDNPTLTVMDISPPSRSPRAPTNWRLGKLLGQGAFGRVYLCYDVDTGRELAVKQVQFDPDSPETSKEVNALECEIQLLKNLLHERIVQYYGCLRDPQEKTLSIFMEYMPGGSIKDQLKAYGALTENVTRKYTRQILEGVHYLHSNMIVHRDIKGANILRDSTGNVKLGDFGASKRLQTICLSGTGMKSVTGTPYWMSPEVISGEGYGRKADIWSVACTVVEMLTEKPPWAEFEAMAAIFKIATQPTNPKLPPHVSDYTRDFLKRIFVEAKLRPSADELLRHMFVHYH

The target of assay [11] is Serine/threonine-protein kinase PAK 1 (Homo sapiens) (UniProt Q13153).
The target in assay [12] is Cyclin-dependent kinase 8 (Homo sapiens) (UniProt P49336).
In assay [13] the target is Ephrin type-A receptor 5 (Homo sapiens) (UniProt P54756).
The subject of assay [14] is Phosphatidylinositol 4,5-bisphosphate 3-kinase catalytic subunit alpha isoform (Homo sapiens), P42336 [C420R].
Assay [15] concerns Phosphatidylinositol 4,5-bisphosphate 3-kinase catalytic subunit alpha isoform (Homo sapiens), P42336 [E542K].
Assay [16] addresses Maternal embryonic leucine zipper kinase (Homo sapiens) (UniProt Q14680).
The test system of assay [17] is Epidermal growth factor receptor (Homo sapiens), P00533 [G719C].
Assay [18] has as its target Phosphatidylinositol 5-phosphate 4-kinase type-2 beta (Homo sapiens) (UniProt P78356).
[19] abbreviates: Compound concentration 1000.0 nM.
Where [20] appears, read: Compound concentration 100.0 nM.

Tyrosine-protein kinase FRK (Homo sapiens), sequence (P42685 whole entry): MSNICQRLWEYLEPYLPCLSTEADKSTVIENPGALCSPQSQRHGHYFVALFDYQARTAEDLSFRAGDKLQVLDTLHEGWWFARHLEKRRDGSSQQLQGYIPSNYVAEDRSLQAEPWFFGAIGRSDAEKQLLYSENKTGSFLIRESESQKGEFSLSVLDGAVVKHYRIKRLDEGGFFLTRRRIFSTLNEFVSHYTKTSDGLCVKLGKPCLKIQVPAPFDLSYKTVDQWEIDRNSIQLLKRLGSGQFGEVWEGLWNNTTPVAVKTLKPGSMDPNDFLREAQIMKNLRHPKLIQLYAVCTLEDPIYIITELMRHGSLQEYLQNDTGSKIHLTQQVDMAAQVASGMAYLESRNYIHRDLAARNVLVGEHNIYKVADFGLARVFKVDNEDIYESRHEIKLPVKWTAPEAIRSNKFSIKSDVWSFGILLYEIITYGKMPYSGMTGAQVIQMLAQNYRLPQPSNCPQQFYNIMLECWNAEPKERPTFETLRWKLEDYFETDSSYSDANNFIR
Cyclin-dependent kinase-like 3 (Homo sapiens), sequence (Q8IVW4 whole entry, looked up): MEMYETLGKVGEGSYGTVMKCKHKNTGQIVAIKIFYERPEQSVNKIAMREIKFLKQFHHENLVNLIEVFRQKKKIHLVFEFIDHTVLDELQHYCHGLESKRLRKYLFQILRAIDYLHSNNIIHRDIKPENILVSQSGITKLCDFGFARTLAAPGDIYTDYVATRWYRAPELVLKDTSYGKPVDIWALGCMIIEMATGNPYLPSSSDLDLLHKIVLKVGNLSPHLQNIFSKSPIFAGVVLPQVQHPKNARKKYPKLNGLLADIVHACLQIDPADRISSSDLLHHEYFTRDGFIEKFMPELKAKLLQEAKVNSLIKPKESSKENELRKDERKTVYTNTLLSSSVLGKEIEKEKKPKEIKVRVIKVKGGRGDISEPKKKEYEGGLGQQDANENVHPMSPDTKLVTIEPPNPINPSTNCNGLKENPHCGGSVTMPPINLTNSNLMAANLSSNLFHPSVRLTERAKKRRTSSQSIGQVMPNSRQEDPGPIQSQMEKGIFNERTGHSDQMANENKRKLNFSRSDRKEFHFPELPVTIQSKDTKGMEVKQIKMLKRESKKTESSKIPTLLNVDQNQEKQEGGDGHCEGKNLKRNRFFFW
Protein kinase C eta type (Homo sapiens), sequence (P24723 whole entry): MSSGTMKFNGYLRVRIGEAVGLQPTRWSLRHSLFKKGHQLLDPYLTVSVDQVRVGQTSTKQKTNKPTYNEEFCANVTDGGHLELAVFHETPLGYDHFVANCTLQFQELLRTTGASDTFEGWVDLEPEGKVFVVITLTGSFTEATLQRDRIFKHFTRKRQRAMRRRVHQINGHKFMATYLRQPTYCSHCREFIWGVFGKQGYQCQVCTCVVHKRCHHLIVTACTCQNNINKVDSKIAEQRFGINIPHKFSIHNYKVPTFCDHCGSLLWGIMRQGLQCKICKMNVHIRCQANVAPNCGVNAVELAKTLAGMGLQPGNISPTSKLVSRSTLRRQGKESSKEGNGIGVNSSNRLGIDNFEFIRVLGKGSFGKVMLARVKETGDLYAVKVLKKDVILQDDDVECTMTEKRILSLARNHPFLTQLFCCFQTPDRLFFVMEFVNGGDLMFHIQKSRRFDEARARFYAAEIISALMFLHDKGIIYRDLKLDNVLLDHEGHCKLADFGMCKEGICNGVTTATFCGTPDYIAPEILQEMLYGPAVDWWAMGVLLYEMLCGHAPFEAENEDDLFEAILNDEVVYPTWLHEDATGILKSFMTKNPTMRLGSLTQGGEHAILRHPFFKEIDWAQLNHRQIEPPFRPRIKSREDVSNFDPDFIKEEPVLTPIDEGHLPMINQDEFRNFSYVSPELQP
Maternal embryonic leucine zipper kinase (Homo sapiens), sequence (Q14680 whole entry, looked up): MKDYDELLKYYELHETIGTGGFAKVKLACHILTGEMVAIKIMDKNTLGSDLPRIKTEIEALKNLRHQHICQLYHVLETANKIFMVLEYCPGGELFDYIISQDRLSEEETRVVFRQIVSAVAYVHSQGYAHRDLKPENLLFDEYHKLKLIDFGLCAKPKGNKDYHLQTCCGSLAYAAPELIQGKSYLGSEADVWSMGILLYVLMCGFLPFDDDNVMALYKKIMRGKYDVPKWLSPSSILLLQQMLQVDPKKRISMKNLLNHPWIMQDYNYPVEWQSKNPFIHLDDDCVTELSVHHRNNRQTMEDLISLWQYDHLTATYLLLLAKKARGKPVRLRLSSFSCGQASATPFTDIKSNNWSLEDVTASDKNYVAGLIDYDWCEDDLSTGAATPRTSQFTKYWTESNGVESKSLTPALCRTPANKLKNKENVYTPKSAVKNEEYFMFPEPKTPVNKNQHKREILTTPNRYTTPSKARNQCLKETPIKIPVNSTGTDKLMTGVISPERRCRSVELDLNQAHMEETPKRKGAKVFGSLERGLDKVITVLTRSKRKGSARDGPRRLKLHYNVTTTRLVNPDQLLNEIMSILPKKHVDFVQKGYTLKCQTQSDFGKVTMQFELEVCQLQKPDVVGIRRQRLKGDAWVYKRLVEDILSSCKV
Phosphatidylinositol 5-phosphate 4-kinase type-2 beta (Homo sapiens), sequence (P78356 whole entry): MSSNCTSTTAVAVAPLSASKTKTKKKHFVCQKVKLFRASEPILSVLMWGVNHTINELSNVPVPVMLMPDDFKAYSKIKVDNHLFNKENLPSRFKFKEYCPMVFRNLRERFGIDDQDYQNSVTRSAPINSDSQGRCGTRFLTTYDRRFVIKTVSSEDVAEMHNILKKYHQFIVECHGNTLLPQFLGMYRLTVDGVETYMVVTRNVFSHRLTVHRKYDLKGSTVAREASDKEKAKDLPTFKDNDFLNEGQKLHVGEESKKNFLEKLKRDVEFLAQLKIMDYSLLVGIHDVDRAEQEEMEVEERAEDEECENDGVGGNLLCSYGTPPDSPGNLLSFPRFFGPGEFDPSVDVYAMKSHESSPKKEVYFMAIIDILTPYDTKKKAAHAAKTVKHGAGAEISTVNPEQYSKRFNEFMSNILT
Mitogen-activated protein kinase 4 (Homo sapiens), sequence (P31152 whole entry): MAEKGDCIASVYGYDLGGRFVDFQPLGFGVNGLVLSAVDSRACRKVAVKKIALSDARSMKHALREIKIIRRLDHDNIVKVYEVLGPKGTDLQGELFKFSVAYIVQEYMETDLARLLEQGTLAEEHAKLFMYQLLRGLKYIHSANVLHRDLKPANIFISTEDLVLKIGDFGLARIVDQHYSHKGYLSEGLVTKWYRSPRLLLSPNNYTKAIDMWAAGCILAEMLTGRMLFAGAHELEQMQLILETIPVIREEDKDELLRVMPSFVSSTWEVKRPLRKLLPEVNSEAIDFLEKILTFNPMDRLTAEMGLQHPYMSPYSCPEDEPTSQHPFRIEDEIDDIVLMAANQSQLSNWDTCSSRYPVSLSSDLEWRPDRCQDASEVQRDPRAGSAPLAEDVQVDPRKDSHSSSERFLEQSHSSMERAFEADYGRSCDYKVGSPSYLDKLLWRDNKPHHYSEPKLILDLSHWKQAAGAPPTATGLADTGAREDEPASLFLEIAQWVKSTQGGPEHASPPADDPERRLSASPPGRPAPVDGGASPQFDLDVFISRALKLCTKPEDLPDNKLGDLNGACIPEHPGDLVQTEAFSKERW
Mitogen-activated protein kinase 14 (Homo sapiens), sequence (Q16539 whole entry): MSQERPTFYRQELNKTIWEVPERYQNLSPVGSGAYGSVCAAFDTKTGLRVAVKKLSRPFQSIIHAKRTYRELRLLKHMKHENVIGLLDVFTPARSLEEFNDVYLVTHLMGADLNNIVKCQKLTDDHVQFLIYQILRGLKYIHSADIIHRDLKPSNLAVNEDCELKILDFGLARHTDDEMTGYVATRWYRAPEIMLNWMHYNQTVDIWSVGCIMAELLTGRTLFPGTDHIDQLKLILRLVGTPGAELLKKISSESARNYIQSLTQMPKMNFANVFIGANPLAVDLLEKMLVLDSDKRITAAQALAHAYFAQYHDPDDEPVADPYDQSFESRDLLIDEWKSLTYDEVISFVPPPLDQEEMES
Phosphatidylinositol 4,5-bisphosphate 3-kinase catalytic subunit alpha isoform (Homo sapiens), P42336 [C420R], sequence (P42336 whole entry C420R, canonical isoform): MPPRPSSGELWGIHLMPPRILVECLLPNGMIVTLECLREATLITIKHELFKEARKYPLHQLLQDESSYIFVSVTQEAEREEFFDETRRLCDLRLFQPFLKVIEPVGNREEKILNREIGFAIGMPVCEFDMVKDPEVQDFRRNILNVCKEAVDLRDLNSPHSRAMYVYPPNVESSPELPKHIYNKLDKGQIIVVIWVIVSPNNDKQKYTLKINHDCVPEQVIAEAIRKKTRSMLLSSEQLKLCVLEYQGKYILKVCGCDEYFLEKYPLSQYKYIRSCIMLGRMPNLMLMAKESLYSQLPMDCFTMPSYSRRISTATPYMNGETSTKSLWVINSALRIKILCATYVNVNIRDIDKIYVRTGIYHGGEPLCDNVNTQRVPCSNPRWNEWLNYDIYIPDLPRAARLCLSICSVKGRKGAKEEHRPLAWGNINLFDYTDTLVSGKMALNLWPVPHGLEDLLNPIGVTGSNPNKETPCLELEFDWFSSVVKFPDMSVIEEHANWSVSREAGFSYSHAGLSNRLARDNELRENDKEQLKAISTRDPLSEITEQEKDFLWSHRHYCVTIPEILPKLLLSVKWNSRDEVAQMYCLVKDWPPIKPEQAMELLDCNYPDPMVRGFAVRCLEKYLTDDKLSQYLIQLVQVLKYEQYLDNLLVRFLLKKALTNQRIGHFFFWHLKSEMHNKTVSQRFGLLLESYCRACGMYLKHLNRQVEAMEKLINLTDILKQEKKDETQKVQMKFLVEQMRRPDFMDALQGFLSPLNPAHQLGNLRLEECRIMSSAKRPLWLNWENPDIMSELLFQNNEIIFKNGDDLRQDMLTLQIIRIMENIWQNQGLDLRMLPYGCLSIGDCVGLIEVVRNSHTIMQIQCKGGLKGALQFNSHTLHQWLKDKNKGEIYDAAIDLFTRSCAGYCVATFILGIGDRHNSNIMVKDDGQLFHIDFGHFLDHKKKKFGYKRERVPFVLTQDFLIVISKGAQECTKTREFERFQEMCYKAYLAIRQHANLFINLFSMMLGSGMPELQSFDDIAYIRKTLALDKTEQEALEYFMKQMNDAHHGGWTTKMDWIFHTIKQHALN

For `C[C@@H]1CN(c2cc(-c3nn(C)c4ccc(OC5(C)CC5)cc34)ncn2)C[C@H](C)O1` [MLi-2-NC], the residual activity in assay [1] (setting [19]) was 65%; in assay [2] (setting [19]), 93%; in [3] (setting [19]) it was 100%; in assay [4] (setting [19]), 93%; in assay [5] (setting [19]) it was 88%; in assay [6] (setting [19]), 100%. The residual activity in assay [7] (setting [19]) is 93%; in assay [8] (setting [19]), 100%; in assay [9] (setting [19]) it was 93%; in [10] (setting [19]) it was 83%; in [11] (setting [19]), 76%; in assay [12] (setting [19]), 100%. For the same molecule, the residual activity is 100% in [13] (setting [19]); 100% in assay [14] (setting [19]); 32% in assay [15] (setting [19]); 55% in assay [16] (setting [19]); 76% in [17] (setting [19]); 84% in assay [18] (setting [19]).

Take `C[C@@H]1CN(c2cc(-c3n[nH]c4ccc(OC5(C)CC5)cc34)ncn2)C[C@H](C)O1` [MLi-2]: the residual activity was 71% in assay [1] (setting [20]); 100% in assay [2] (setting [20]); 100% in assay [3] (setting [20]); 83% in [4] (setting [20]); 75% in assay [5] (setting [20]); 95% in assay [6] (setting [20]). Moreover, the residual activity in assay [7] (setting [20]) was 59%; in assay [8] (setting [20]), 92%; in assay [9] (setting [20]), 90%; in [10] (setting [20]), 73%; in [11] (setting [20]), 97%; in [12] (setting [20]), 63%. Further, the residual activity in [13] (setting [20]) is 95%; in assay [14] (setting [20]) it was 72%; in assay [15] (setting [20]), 81%; in [16] (setting [20]) it was 88%; in assay [17] (setting [20]) it was 63%; in assay [18] (setting [20]), 81%.
